{
  "source": "patent US20110166066A1",
  "about": "“CATESTATIN (CST) AND ITS VARIANTS FOR TREATMENT OF CARDIOVASCULAR AND METABOLIC DISORDERS” (priority 2008, published 2011)",
  "test_system": "EPCs",
  "assay": "Effects on EPCs in-vitro",
  "assay_type": "cell-based",
  "note": "No end group written: not given here.",
  "data": [
    {"sequence": "SSMKLSFRARAYGFRGPGPQL [WT-CST, catestatin]", "values": [
      {"measurement": "Effects on EPCs (chemotaxis, incorporation into vascular structures)", "value": "showed effects on EPCs"}
    ]}
  ]
}
